pIC50: −log10 of the molar value. Counter-ions that a name gives are not always drawn.
Assays:
rat FAAH = molecular target: T1, rat FAAH (Rattus norvegicus, UniProt P97612); test: Assay Method 2: FAAH assay, 3H-anandamide hydrolysis in homogenate of SK-N-MC cells transfected with rat FAAH; type: biochemical; conditions: average of results, > = solubility limit or highest concentration tested
T1 sequence (P97612 1-579): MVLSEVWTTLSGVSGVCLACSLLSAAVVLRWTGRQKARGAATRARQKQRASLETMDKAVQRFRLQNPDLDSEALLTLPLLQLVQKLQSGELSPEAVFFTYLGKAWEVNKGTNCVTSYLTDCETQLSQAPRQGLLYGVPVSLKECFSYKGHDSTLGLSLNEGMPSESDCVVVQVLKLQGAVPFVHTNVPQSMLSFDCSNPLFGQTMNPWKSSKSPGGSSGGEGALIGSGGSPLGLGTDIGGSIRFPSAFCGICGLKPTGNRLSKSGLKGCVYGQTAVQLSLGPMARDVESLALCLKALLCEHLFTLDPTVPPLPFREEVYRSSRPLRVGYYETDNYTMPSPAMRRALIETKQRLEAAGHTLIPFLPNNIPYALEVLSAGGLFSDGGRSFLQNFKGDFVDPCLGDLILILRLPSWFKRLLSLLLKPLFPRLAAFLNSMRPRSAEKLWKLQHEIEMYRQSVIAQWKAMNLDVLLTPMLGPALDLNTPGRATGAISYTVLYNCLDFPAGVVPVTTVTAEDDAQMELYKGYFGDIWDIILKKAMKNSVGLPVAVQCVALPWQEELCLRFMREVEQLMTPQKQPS
Protocol: A. Transfection of Cells with Rat FAAH
(§1) A 10-cm tissue culture dish with a confluent monolayer of SK—N-MC cells was split 2 days (d) prior to transfection. Using sterile technique, the media was removed and the cells were detached from the dish by the addition of trypsin. One fifth of the cells were then placed onto a new 10-cm dish. Cells were grown in a 37° C. incubator with 5% CO2 in Minimal Essential Media Eagle with 10% Fetal Bovine Serum. After 2 d, cells were approximately 80% confluent. These cells were removed from the dish with trypsin and pelleted in a clinical centrifuge. The pellet was re-suspended in 400 μL complete media and transferred to an electroporation cuvette with a 0.4 cm gap between the electrodes. Supercoiled rat FAAH cDNA (1 μg) was added to the cells and mixed. The voltage for the electroporation was set at 0.25 kV, and the capacitance was set at 960 μF. After electroporation, the cells were diluted into complete media (10 mL) and plated onto four 10-cm dishes. Because of the variability in the efficiency of electroporation, four different concentrations of cells were plated. The ratios used were 1:20, 1:10, and 1:5, with the remainder of the cells being added to the fourth dish. The cells were allowed to recover for 24 h before adding the selection media (complete media with 600 μg/mL G418). After 10 d, dishes were analyzed for surviving colonies of cells. Dishes with well-isolated colonies were used. Cells from individual colonies were isolated and tested.
(§2) T84 frozen cell pellets or transfected SK—N-MC cells (contents of 1×15 cm culture dishes) were homogenized in 50 mL of FAAH assay buffer (125 mM Tris, 1 mM EDTA, 0.2% Glycerol, 0.02% Triton X-100, 0.4 mM Hepes, pH 9). The assay mixture consisted of 50 μL of the cell homogenate, 10 μL of the test compound, and 40 μL of anandamide [1-^3H-ethanolamine] (^3H-AEA, Perkin-Elmer, 10.3 Ci/mmol), which was added last, for a final tracer concentration of 80 nM. The reaction mixture was incubated at rt for 1 h. During the incubation, 96-well Multiscreen filter plates (catalog number MAFCNOB50; Millipore, Bedford, Mass., USA) were loaded with 25 μL of activated charcoal (Multiscreen column loader, catalog number MACL09625, Millipore) and washed once with 100 μL of MeOH. Also during the incubation, 96-well DYNEX MicroLite plates (catalog number NL510410) were loaded with 100 μL of MicroScint40 (catalog number 6013641, Packard Bioscience, Meriden, Conn., USA). After the 1 h incubation, 60 μL of the reaction mixture were transferred to the charcoal plates, which were then assembled on top of the DYNEX plates using Centrifuge Alignment Frames (catalog number MACF09604, Millipore). The unbound labeled ethanolamine was centrifuged through to the bottom plate (5 min at 2000 rpm), which was preloaded with the scintillant, as described above. The plates were sealed and left at rt for 1 h before counting on a Hewlett Packard TopCount.
(§3) Compounds were tested in free base, hydrochloride salt, and/or trifluoroacetic acid salt forms.

FAAH = molecular target: T2, FAAH (Homo sapiens, UniProt O00519); test: Assay Method 1: FAAH assay, 3H-anandamide hydrolysis in homogenate of T84 cells or SK-N-MC cells transfected with human FAAH; type: biochemical; conditions: average of results, > = solubility limit or highest concentration tested
T2 sequence (O00519 1-579): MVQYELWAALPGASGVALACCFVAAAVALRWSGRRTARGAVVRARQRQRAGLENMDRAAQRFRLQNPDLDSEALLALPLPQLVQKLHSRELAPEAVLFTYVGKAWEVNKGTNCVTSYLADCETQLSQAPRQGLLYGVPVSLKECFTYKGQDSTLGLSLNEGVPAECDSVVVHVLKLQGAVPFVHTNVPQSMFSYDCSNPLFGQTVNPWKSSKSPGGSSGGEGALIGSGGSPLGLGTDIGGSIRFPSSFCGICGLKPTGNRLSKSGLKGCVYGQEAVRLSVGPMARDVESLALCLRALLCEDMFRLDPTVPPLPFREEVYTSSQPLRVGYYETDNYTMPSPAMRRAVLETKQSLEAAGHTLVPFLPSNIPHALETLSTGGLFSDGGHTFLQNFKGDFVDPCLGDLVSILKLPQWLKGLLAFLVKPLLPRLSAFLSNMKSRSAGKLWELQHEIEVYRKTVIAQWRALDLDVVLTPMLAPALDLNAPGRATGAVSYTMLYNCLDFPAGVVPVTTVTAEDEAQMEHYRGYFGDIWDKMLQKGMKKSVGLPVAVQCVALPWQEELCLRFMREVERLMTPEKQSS
Protocol: A. Transfection of Cells with Human FAAH
as §1, with “Supercoiled human” for “Supercoiled rat”
as §2, §3

Compound | pIC50 (rat FAAH) | pIC50 (FAAH)
O=C(Nc1noc2ccccc12)N1CCC(Cc2ccc3ccccc3c2)CC1 [Example 21, 4-Naphthalen-2-ylmethyl-piperidine-1-carboxylic acid benzo[d]isoxazol-3-ylamide] | 8.15 | 7.37
O=C(Nc1noc2ccccc12)N1CCN(Cc2cccc(Oc3cccc(Cl)c3)c2)CC1 [Example 127, N-1,2-Benzisoxazol-3-yl-4-[3-(3-chlorophenoxy)benzyl]piperazine-1-carboxamide] | 7.40 | 7.40
O=C(Nc1ccc2ncccc2n1)N1CCC(Cc2ccc3ccccc3c2)CC1 [Example 17, 4-Naphthalen-2-ylmethyl-piperidine-1-carboxylic acid [1,5]naphthyridin-2-ylamide trifluoroacetic acid salt] | 6.29 | –
O=C(Nc1noc2ccccc12)N1CCN(Cc2cccc(Oc3ncccn3)c2)CC1 [Example 95, 4-[3-(Pyrimidin-2-yloxy)-benzyl]-piperazine-1-carboxylic acid benzo[d]isoxazol-3-ylamide] | – | 5.55
O=C(Nc1ccc(Cl)nn1)N1CCC(Cc2ccc(F)cc2)CC1 [Example 23, 4-(4-Fluoro-benzyl)-piperidine-1-carboxylic acid (6-chloro-pyridazin-3-yl)-amide] | 5.30 | –
O=C(Nc1nnn[nH]1)N1CCN(Cc2cccc(Oc3ccc(Cl)cc3)c2)CC1 [Example 57, 4-[3-(4-Chloro-phenoxy)-benzyl]-piperazine-1-carboxylic acid (1H-tetrazol-5-yl)-amide trifluoroacetic acid salt] | 6.78 | –
O=C(Nc1cccc2nsnc12)N1CCN(Cc2cccc(Oc3ccc(Cl)cc3)c2)CC1 [Example 37, 4-[3-(4-Chloro-phenoxy)-benzyl]-piperazine-1-carboxylic acid benzo[1,2,5]thiadiazol-4-ylamide trifluoroacetic acid salt] | 8.22 | –
O=C(Nc1ccon1)N1CCC(Cc2ccc(F)cc2)CC1 [Example 24, 4-(4-Fluoro-benzyl)-piperidine-1-carboxylic acid isoxazol-3-ylamide] | 5.40 | –
O=C(Nc1ccon1)N1CCN(Cc2cc3ccccc3s2)CC1 [Example 142, 4-(1-Benzothiophen-2-ylmethyl)-N-isoxazol-3-ylpiperazine-1-carboxamide] | – | 5.70
O=C(Nc1cc[nH]n1)N1CCN(Cc2cccc(Oc3ccc(Cl)cc3)c2)CC1 [Example 53, 4-[3-(4-Chloro-phenoxy)-benzyl]-piperazine-1-carboxylic acid (1H-pyrazol-3-yl)-amide trifluoroacetic acid salt] | 7.52 | –
O=C(Nc1ccon1)N1CCN(Cc2ccc(OCc3ccccc3)cc2)CC1 [Example 135, 4-[4-(Benzyloxy)benzyl]-N-isoxazol-3-ylpiperazine-1-carboxamide] | – | 6.08
O=C(Nc1noc2ccccc12)N1CCN(Cc2ccc3cn[nH]c3c2)CC1 [Example 101, N-1,2-Benzisoxazol-3-yl-4-(1H-indazol-6-ylmethyl)piperazine-1-carboxamide] | – | 5.20
O=C(Nc1nc(-c2ccccc2)ns1)N1CCN(Cc2ccc3c(c2)OC(F)(F)O3)CC1 [Example 2, 4-(2,2-Difluoro-benzo[1,3]dioxol-5-ylmethyl)-piperazine-1-carboxylic acid (3-phenyl-[1,2,4]thiadiazol-5-yl)-amide trifluoroacetic acid salt] | – | 6.67

Further lines, results first:

pIC50 (rat FAAH) | pIC50 (FAAH) | Compound
6.32 | 5.92 | O=C(Nc1nn[nH]n1)N1CCN(Cc2ccc(Br)c(F)c2)CC1 [Example 168, 4-(4-Bromo-3-fluorobenzyl)-N-1H-tetrazol-5-ylpiperazine-1-carboxamide]
7.92 | 8.22 | O=C(Nc1cnccn1)N1CCN(Cc2cccc(Oc3ccc(SC(F)(F)F)cc3)c2)CC1 [Example 234, N-Pyrazin-2-yl-4-(3-{4-[(trifluoromethyl)sulfanyl]phenoxy}benzyl)-piperazine-1-carboxamide]
< 5.00 | – | O=C(Nc1ccon1)N1CCN(Cc2cnc3ccccc3c2)CC1 [Example 147, 4-Quinolin-3-ylmethyl-piperazine-1-carboxylic acid isoxazol-3-ylamide]
6.00 | – | O=C(Nc1nnn[nH]1)N1CCN(Cc2ccc3ccccc3n2)CC1 [Example 175, 4-(Quinolin-2-ylmethyl)-N-1H-tetrazol-5-ylpiperazine-1-carboxamide]
– | 5.52 | O=C(Nc1ccon1)N1CCN(Cc2ccc3ccccc3n2)CC1 [Example 146, 4-Quinolin-2-ylmethyl-piperazine-1-carboxylic acid isoxazol-3-ylamide]
– | 5.89 | O=C(Nc1ccon1)N1CCN(Cc2ccc(Br)c(Br)c2)CC1 [Example 154, 4-(3,4-Dibromobenzyl)-N-isoxazol-3-ylpiperazine-1-carboxamide]
– | < 5.00 | O=C(Nc1nn[nH]n1)N1CCN(Cc2ccc3c(c2)OCO3)CC1 [Example 180, 4-Benzo[1,3]dioxol-5-ylmethyl-piperazine-1-carboxylic acid (2H-tetrazol-5-yl)-amide]
– | 6.64 | O=C(Nc1cnccn1)N1CCN(Cc2ccc(OCc3ccccc3)cc2)CC1 [Example 219, 4-[4-(Benzyloxy)benzyl]-N-pyrazin-2-ylpiperazine-1-carboxamide]
– | 6.74 | O=C(Nc1cnccn1)N1CCN(Cc2cccc(OCc3ccccc3)c2)CC1 [Example 223, 4-[3-(Benzyloxy)benzyl]-N-pyrazin-2-ylpiperazine-1-carboxamide]

Reference: patent US20090062294A1, “HETEROARYL-SUBSTITUTED UREA MODULATORS OF FATTY ACID AMIDE HYDROLASE” (priority 2007, published 2009)
